Values quoted from earlier work, collected in US8124611B2, “Inhibitors of the mutant form of kit” (Novartis AG, priority 2003, dated 2012).

Target: KIT D816V mutation (Homo sapiens, UniProt P10721, D816V)
Conditions: D816V mutation commonly found in systemic mastocytosis

Chain of KIT D816V mutation (P10721 26-976 D816V): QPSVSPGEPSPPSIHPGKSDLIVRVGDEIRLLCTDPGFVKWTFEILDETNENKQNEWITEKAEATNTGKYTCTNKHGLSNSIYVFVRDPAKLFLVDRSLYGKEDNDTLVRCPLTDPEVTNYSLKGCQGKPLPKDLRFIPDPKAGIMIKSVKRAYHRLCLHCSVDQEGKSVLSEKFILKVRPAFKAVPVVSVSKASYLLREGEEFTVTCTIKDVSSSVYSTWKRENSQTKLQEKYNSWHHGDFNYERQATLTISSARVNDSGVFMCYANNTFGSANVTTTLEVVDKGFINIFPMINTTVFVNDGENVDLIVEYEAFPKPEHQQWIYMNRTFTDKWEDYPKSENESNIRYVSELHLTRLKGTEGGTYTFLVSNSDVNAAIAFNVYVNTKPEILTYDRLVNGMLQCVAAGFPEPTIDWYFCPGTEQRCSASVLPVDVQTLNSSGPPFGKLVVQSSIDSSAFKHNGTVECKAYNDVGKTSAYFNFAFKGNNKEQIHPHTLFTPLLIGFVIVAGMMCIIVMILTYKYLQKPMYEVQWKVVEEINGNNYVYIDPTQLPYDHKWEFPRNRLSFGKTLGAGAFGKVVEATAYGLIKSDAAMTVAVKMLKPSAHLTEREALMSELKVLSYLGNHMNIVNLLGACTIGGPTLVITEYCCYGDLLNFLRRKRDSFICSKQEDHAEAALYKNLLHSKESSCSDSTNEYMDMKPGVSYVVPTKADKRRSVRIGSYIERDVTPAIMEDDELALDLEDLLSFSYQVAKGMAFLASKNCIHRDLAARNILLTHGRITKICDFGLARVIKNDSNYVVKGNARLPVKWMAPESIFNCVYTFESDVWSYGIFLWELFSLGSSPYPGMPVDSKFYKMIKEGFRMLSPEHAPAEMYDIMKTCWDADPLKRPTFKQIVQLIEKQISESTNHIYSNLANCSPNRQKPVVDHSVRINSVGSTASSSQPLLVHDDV

Q: With `Cc1ccc(NC(=O)c2ccc(CN3CCN(C)CC3)cc2)cc1Nc1nccc(-c2cccnc2)n1` [Imatinib] as the molecule, how does the “activity against mutant forms of KIT” value read?
A: The value was “inactive or significantly less active”.
